# Measured values as given in patent US20240383915A1, “OXAZEPINE COMPOUNDS AND USES THEREOF IN THE TREATMENT OF CANCER” (Genentech, Inc., priority 2021, published 2024).
# Experiments:
# [1] = tested on: SW480 cells; experiment: SW480 proliferation assay; type: cell-based; settings: Homo sapiens, SW480, SW480; read-out: SW480 Prolif IC50 (G12V)
# [2] = tested on: PC-9 cells; experiment: PC9 proliferation assay; type: cell-based, human; settings: Homo sapiens, PC-9, PC9; read-out: PC9 Prolif IC50 (G12V)
# [3] = biological target: KRas(G12V) (Homo sapiens (Human), UniProt P01116, G12V); experiment: KRas(G12V) GDP HTRF (BODIPY-GDP exchange TR-FRET); type: biochemical
# [4] = biological target: KRas (Homo sapiens (Human), UniProt P01116); experiment: KRas GDP HTRF (BODIPY-GDP exchange TR-FRET); type: biochemical
# In short: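 Inhibition of SOS1-mediated exchange of BODIPY-GDP on KRAS G12D, started with 3 nM recombinant human SOS1 and 300 nM BODIPY-GDP and read after 60 min. TR-FRET excitation 337 nm, ratio 520/490 nm ×10,000. IC50 from 4-parameter Hill fit of normalized data.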
# Chain of KRas(G12V) (P01116-2 other isoform, or with tags, fused parts or gaps G12V): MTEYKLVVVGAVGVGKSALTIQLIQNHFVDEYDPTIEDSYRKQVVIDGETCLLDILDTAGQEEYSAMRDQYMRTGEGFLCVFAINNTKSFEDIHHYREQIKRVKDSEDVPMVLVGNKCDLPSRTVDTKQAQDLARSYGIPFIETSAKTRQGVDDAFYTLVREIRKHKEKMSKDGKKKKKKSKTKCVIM
# Chain of KRas (P01116-2 other isoform, or with tags, fused parts or gaps): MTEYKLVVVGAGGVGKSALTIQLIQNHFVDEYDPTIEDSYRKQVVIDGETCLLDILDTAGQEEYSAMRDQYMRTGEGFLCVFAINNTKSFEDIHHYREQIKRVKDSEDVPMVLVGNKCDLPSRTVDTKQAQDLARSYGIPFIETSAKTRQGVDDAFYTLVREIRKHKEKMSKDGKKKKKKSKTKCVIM
Structure (SMILES),IC50 [1] [nM],IC50 [2] [nM],IC50 [3] [nM],IC50 [4] [nM]
"C[C@H](c1cccnc1N)N1CCOc2c(Cl)c(-c3nc(N)cc4ccccc34)c(F)c3nc(OC[C@@]45CCCN4C[C@H](F)C5)nc1c23 (atropisomer, axis not shown; (aS)) [Example 113a, 1-((R)-4-((R)-1-(2-aminopyridin-3-yl)ethyl)-8-chloro-10-fluoro-2-(((2R,7aS)-2-fluorotetrahydro-1H-pyrrolizin-7a(5H)-yl)methoxy)-5,6-dihydro-4H-[1,4]oxazepino[5,6,7-de]quinazolin-9-yl)isoquinolin-3-amine]",2.8,7500,0.09,0.2
"C=C1CN2CCC2(COc2nc3c4c(c(Cl)c(-c5nc(N)cc(C)c5C(F)(F)F)c(F)c4n2)OCCN3[C@H](C)c2cccnc2N)C1 (stereo partly drawn) [Example 118, (6R)-6-(4-((R)-1-(2-aminopyridin-3-yl)ethyl)-8-chloro-10-fluoro-2-((3-methylene-1-azabicyclo[3.2.0]heptan-5-yl)methoxy)-5,6-dihydro-4H-[1,4]oxazepino[5,6,7-de]quinazolin-9-yl)-4-methyl-5-(trifluoromethyl)pyridin-2-amine]",33,730,0.06,0.19
"Cc1cc(N)nc(-c2c(Cl)c3c4c(nc(OC[C@H]5CC[C@@H]6COCCN65)nc4c2F)N([C@H](C)c2cncnc2N)CCO3)c1C(F)(F)F (atropisomer, axis not shown; (aR)) [Example 102b, 5-((R)-1-((R)-9-(6-amino-4-methyl-3-(trifluoromethyl)pyridin-2-yl)-8-chloro-10-fluoro-2-(((6R,8aR)-hexahydro-1H-pyrrolo[2,1-c][1,4]oxazin-6-yl)methoxy)-5,6-dihydro-4H-[1,4]oxazepino[5,6,7-de]quinazolin-4-yl)ethyl)pyrimidin-4-amine]",100,8700,0.17,0.49
"C[C@H](c1cccnc1N)N1CCOc2c(Cl)c(-c3c(F)ccc4cnn(C)c34)c(F)c3nc(OC[C@@]45CCCN4C[C@H](F)C5)nc1c23 (single isomer, unassigned) [Example 105a]",16,7100,0.08,0.23
"CN1CCOc2c(Cl)c(-c3cccc4sc(N)nc34)cc3nc(OC[C@@]45CCCN4C[C@H](F)C5)nc1c23 [Example 23, 4-(8-chloro-2-(((2R,7aS)-2-fluorotetrahydro-1H-pyrrolizin-7a(5H)-yl)methoxy)-4-methyl-5,6-dihydro-4H-[1,4]oxazepino[5,6,7-de]quinazolin-9-yl)benzo[d]thiazol-2-amine]",5100,10000,5.1,29
"Cc1cc(N)nc(-c2c(Cl)c3c4c(nc(OC[C@H]5CC[C@@H]6COC(F)(F)CN56)nc4c2F)N([C@H](C)c2cccnc2N)CCO3)c1C(F)(F)F (atropisomer, axis not shown; (aR)) [Example 91b, 6-((R)-4-((R)-1-(2-aminopyridin-3-yl)ethyl)-8-chloro-2-(((6R,8aR)-3,3-difluorohexahydro-1H-pyrrolo[2,1-c][1,4]oxazin-6-yl)methoxy)-10-fluoro-5,6-dihydro-4H-[1,4]oxazepino[5,6,7-de]quinazolin-9-yl)-4-methyl-5-(trifluoromethyl)pyridin-2-amine]",140,6400,0.81,2.2
"COc1nc2c3c(c(Cl)c(-c4nc(N)cc(C)c4C(F)(F)F)c(F)c3n1)OCCN2[C@H](C)c1cccnc1N (atropisomer, axis not shown) [Example 155, 6-((R)-4-((R)-1-(2-aminopyridin-3-yl)ethyl)-8-chloro-10-fluoro-2-methoxy-5,6-dihydro-4H-[1,4]oxazepino[5,6,7-de]quinazolin-9-yl)-4-methyl-5-(trifluoromethyl)pyridin-2-amine]",220,10000,0.45,2.5
"Cc1cc(N)nc(-c2c(Cl)c3c4c(nc(OC[C@@H]5CC[C@H]6COC(F)(F)CN56)nc4c2F)N([C@H](C)c2cccnc2N)CCO3)c1C(F)(F)F (atropisomer, axis not shown; (aS)) [Example 91a, 6-((R)-4-((R)-1-(2-aminopyridin-3-yl)ethyl)-8-chloro-2-(((6S,8aS)-3,3-difluorohexahydro-1H-pyrrolo[2,1-c][1,4]oxazin-6-yl)methoxy)-10-fluoro-5,6-dihydro-4H-[1,4]oxazepino[5,6,7-de]quinazolin-9-yl)-4-methyl-5-(trifluoromethyl)pyridin-2-amine]",3.4,20000,0.29,0.9
"Cc1cc(N)nc(-c2c(Cl)c3c4c(nc(OCCC5CCCN5C)nc4c2F)N([C@H](C)c2cccnc2N)CCO3)c1C(F)(F)F (stereo partly drawn) [Example 139, 6-((9R)-4-((R)-1-(2-aminopyridin-3-yl)ethyl)-8-chloro-10-fluoro-2-(2-(1-methylpyrrolidin-2-yl)ethoxy)-5,6-dihydro-4H-[1,4]oxazepino[5,6,7-de]quinazolin-9-yl)-4-methyl-5-(trifluoromethyl)pyridin-2-amine]",240,830,0.08,0.205
"C=C1CN2CCC[C@@]2(COc2nc3c4c(c(Cl)c(-c5nc(N)cc(C)c5C(F)(F)F)cc4n2)OCCN3C)C1 [Example 44, (S)-6-(8-chloro-4-methyl-2-((2-methylenetetrahydro-1H-pyrrolizin-7a(5H)-yl)methoxy)-5,6-dihydro-4H-[1,4]oxazepino[5,6,7-de]quinazolin-9-yl)-4-methyl-5-(trifluoromethyl)pyridin-2-amine]",4100,4800,2.7,17
"Cc1cc(N)nc(-c2c(Cl)c3c4c(nc(OCCF)nc4c2F)N([C@H](C)c2cccnc2N)CCO3)c1C(F)(F)F (atropisomer, axis not shown) [Example 151, 6-((R)-4-((R)-1-(2-aminopyridin-3-yl)ethyl)-8-chloro-10-fluoro-2-(2-fluoroethoxy)-5,6-dihydro-4H-[1,4]oxazepino[5,6,7-de]quinazolin-9-yl)-4-methyl-5-(trifluoromethyl)pyridin-2-amine]",700,14000,1.1,5.4
"C=C1CN2CCC[C@@]2(COc2nc3c4c(c(Cl)c(-c5nc(N)cc(C)c5C(F)(F)F)c(F)c4n2)OCCN3[C@H](C)c2cccnc2N)C1 (atropisomer, axis not shown) [Example 116, 6-((R)-4-((R)-1-(2-aminopyridin-3-yl)ethyl)-8-chloro-10-fluoro-2-(((S)-2-methylenetetrahydro-1H-pyrrolizin-7a(5H)-yl)methoxy)-5,6-dihydro-4H-[1,4]oxazepino[5,6,7-de]quinazolin-9-yl)-4-methyl-5-(trifluoromethyl)pyridin-2-amine]",4.6,1600,0.074,0.0519
"Cc1cc(N)nc(-c2c(Cl)c3c4c(nc(OCC56CC(CO5)C6)nc4c2F)N([C@H](C)c2cccnc2N)CCO3)c1C(F)(F)F [Example 143, 6-((R)-2-((2-oxabicyclo[2.1.1]hexan-1-yl)methoxy)-4-((R)-1-(2-aminopyridin-3-yl)ethyl)-8-chloro-10-fluoro-5,6-dihydro-4H-[1,4]oxazepino[5,6,7-de]quinazolin-9-yl)-4-methyl-5-(trifluoromethyl)pyridin-2-amine]",94,10000,,
"Cc1cc(N)nc(-c2cc3nc(OC[C@@]45CCCN4CC(F)(F)C5)nc4c3c(c2Cl)OCCN4Cc2cccnc2N)c1C(F)(F)F [Example 34, (S)-6-(4-((2-aminopyridin-3-yl)methyl)-8-chloro-2-((2,2-difluorotetrahydro-1H-pyrrolizin-7a(5H)-yl)methoxy)-5,6-dihydro-4H-[1,4]oxazepino[5,6,7-de]quinazolin-9-yl)-4-methyl-5-(trifluoromethyl)pyridin-2-amine]",820,4000,,
"Cc1cc(N)nc(-c2c(Cl)c3c4c(nc(OC[C@@]56CCCN5C[C@H](F)C6)nc4c2F)N([C@H](C)c2ccnnc2N)CCO3)c1C(F)(F)F (atropisomer, axis not shown) [Example 133c]",25,7100,,
"COC1(CCOc2nc3c4c(c(Cl)c(-c5nc(N)cc(C)c5C(F)(F)F)c(F)c4n2)OCCN3[C@H](C)c2cccnc2N)CCC1 (atropisomer, axis not shown) [Example 150, 6-((R)-4-((R)-1-(2-aminopyridin-3-yl)ethyl)-8-chloro-10-fluoro-2-(2-(1-methoxycyclobutyl)ethoxy)-5,6-dihydro-4H-[1,4]oxazepino[5,6,7-de]quinazolin-9-yl)-4-methyl-5-(trifluoromethyl)pyridin-2-amine]",790,8900,,
"Cc1cc(N)nc(-c2c(Cl)c3c4c(nc(OCCN5CCOCC5)nc4c2F)N([C@H](C)c2cccnc2N)CCO3)c1C(F)(F)F (atropisomer, axis not shown) [Example 138, 6-((R)-4-((R)-1-(2-aminopyridin-3-yl)ethyl)-8-chloro-10-fluoro-2-(2-morpholinoethoxy)-5,6-dihydro-4H-[1,4]oxazepino[5,6,7-de]quinazolin-9-yl)-4-methyl-5-(trifluoromethyl)pyridin-2-amine]",77,4900,,
